The text below walks through data of PMC5630639 (Scientific Reports, 2017).

What all share (format): cell-based, human
For assay [1], the system named is A549 cells. Nature of the assay: CCK-8 proliferation assay, A549. The following applies: 48 h, CCK-8, mean ± SD. The procedure: (§1) All synthesized β-lactam-azide derivatives were evaluated for their antiproliferative activity against three cancer cell lines (MGC-803, MCF-7, A549) using CCK-8 proliferation assay. The well-known anticancer drug CA-4P was used as a control[36],[37].
(§2) MGC-803 cell line was obtained from the Chinese Academy of Sciences (Shanghai, China). MCF-7 and A549 were from the National Cell Center, China. MGC-803 cells were cultured in DMEM culture medium (DMEM, Biological Industries, Kibbutz Beit Haemek, Israel). A549 and MCF-7 cells were cultured in 1640 medium (1640, Biological Industries, Kibbutz Beit Haemek, Israel). All medium were supplemented with 10% fetal bovine serum, 100 U/ml penicillin (North China Pharmaceutical group Co.), and 100 µg/ml streptomycin (North China Pharmaceutical group Co.). All cells were cultured at 37 °C in a humidified incubator containing 5% CO2.
(§3) Synthesized analogues used in the study were dissolved in 100% cell culture grade DMSO and the final concentration of DMSO as <0.1% for testing on cancer cell lines. Cytotoxicity assays were performed on the human gastric carcinoma cell line MGC-803, the human mammary carcinoma cell line MCF-7, the human lung carcinoma cell line A549. Cells (3500–5000/well) were seeded into 96-well plates in 100 µL of culture medium. The cells were treated in triplicate with a gradient concentration of testing compounds and incubated at 37 °C, 5% CO2 for 48 h. For all cell lines, CCK-8 assay was performed to measure cytotoxic effects. The absorbance was measured using a microplate reader (BioTek Instrument, Inc. Vermont, USA) with a test wavelength of 450 nm. The absorbance levels were corrected against untreated control absorbance values. All experiments were performed in triplicate and SPSS17.0 was used for data analysis to obtain IC50 values.

Assay [2] deals with MGC-803 cells. The experiment in a line: CCK-8 proliferation assay, MGC-803. To be noted: for IC50: 48 h, CCK-8, mean ± SD. The procedure:
as §1, §2, §3

For assay [3], the system named is MCF-7 cells. Nature of the assay: CCK-8 proliferation assay, MCF-7. To be noted: 48 h, CCK-8, mean ± SD. The procedure: as §1, §2, §3
For orientation: Formazan colour is commonly taken as a measure of viable cells.

Regarding `COc1cc(N2C(=O)[C@H](c3ccc(F)cc3)[C@H]2c2cccc(N=[N+]=[N-])c2)cc(OC)c1OC` (relative stereo) [Compound 24, trans-4-(3-azidophenyl)-3-(4-fluorophenyl)-1-(3,4,5-trimethoxyphenyl)azetidin-2-one], the concentration for half-maximal inhibition (IC50) (as a rule, the concentration needed to halve the response being measured) in assay [1] (Homo sapiens, A549) was 5.76 ± 0.887 µM; in assay [2] (Homo sapiens, MGC-803), 0.84 ± 0.63 µM; in assay [3] (Homo sapiens, MCF7), 4 ± 0.922 µM.
In the case of `COc1cccc([C@H]2C(=O)N(c3cc(OC)c(OC)c(OC)c3)[C@@H]2c2cccc(N=[N+]=[N-])c2)c1` (relative stereo) [Compound 23, trans-4-(3-azidophenyl)-3-(3-methoxyphenyl)-1-(3,4,5-trimethoxyphenyl)azetidin-2-one], the 50% inhibitory concentration (IC50) in assay [1] (Homo sapiens, A549) is 18.1 ± 1.71 µM; in assay [2] (Homo sapiens, MGC-803), 1.4 ± 0.127 µM; in assay [3] (Homo sapiens, MCF7), 2.88 ± 0.494 µM.
Consider `COc1ccc([C@H]2C(=O)N(c3ccc(OC)c(OC)c3)[C@@H]2c2ccc(N=[N+]=[N-])cc2)cc1` [Compound 13, trans-4-(4-azidophenyl)-1-(3,4-dimethoxyphenyl)-3-(4-methoxyphenyl)azetidin-2-one], for which the IC50 was more than 20 µM in assay [1] (Homo sapiens, A549); more than 20 µM in assay [2] (Homo sapiens, MGC-803); more than 20 µM in assay [3] (Homo sapiens, MCF7).
As to `COc1cc(N2C(=O)[C@@](c3ccccc3)(S(=O)(=O)C(F)(F)F)[C@H]2c2cccc(N=[N+]=[N-])c2)cc(OC)c1OC` [Compound 36, 4-(3-azidophenyl)-3-phenyl-3-((trifluoromethyl)sulfonyl)-1-(3,4,5-trimethoxyphenyl)azetidin-2-one], the IC50 in assay [1] (Homo sapiens, A549) is more than 20 µM; in assay [2] (Homo sapiens, MGC-803), more than 20 µM; in assay [3] (Homo sapiens, MCF7), more than 20 µM.
With `COc1ccc(N2C(=O)[C@H](c3ccc(F)cc3)[C@H]2c2cccc(N=[N+]=[N-])c2)c(OC)c1` (relative stereo) [Compound 22, trans-4-(3-azidophenyl)-1-(2,4-dimethoxyphenyl)-3-(4-fluorophenyl)azetidin-2-one], the concentration for half-maximal inhibition (IC50) in assay [1] (Homo sapiens, A549) was more than 20 µM; in assay [2] (Homo sapiens, MGC-803), more than 20 µM; in assay [3] (Homo sapiens, MCF7) it was more than 20 µM.
For the compound `COc1cc(N2C(=O)[C@@](c3ccccc3)(S(=O)(=O)C(F)(F)F)[C@H]2c2ccc(N=[N+]=[N-])cc2)cc(OC)c1OC` [Compound 35, 4-(4-azidophenyl)-3-phenyl-3-((trifluoromethyl)sulfonyl)-1-(3,4,5-trimethoxyphenyl)azetidin-2-one], the IC50 in assay [1] (Homo sapiens, A549) is more than 20 µM; in assay [2] (Homo sapiens, MGC-803), more than 20 µM; in assay [3] (Homo sapiens, MCF7), more than 20 µM.
For the compound `COc1ccc(N2C(=O)[C@H](c3ccccc3)[C@H]2c2ccc(N=[N+]=[N-])cc2)cc1OC` (relative stereo) [Compound 12, trans-4-(4-azidophenyl)-1-(3,4-dimethoxyphenyl)-3-phenylazetidin-2-one], the IC50 was more than 20 µM in assay [1] (Homo sapiens, A549); more than 20 µM in assay [2] (Homo sapiens, MGC-803); more than 20 µM in assay [3] (Homo sapiens, MCF7).
As for `COc1cccc([C@H]2C(=O)N(c3ccc(OC)c(OC)c3)[C@@H]2c2ccc(N=[N+]=[N-])cc2)c1` (relative stereo) [Compound 16, trans-4-(4-azidophenyl)-1-(3,4-dimethoxyphenyl)-3-(3-methoxyphenyl)azetidin-2-one], the IC50 in assay [1] (Homo sapiens, A549) is more than 20 µM; in assay [2] (Homo sapiens, MGC-803), more than 20 µM; in assay [3] (Homo sapiens, MCF7) it was more than 20 µM.
Consider `COc1cccc([C@H]2C(=O)N(c3cc(OC)c(OC)c(OC)c3)[C@@H]2c2ccc(N=[N+]=[N-])cc2)c1` (relative stereo) [Compound 19, trans-4-(4-azidophenyl)-3-(3-methoxyphenyl)-1-(3,4,5-trimethoxyphenyl)azetidin-2-one], for which the half-maximal inhibitory concentration (IC50) in assay [1] (Homo sapiens, A549) came to 18.1 ± 2.31 µM; in assay [2] (Homo sapiens, MGC-803), 1.4 ± 0.133 µM; in assay [3] (Homo sapiens, MCF7) it was 2.88 ± 0.489 µM. Moreover, the “activity loss against the growth of MGC-803 cells” value in assay [2] (hydrogen atom (18) replaced with methoxy group (19)) is listed as “over 8 fold”.
With `CCN1CCN(C(=S)SCc2cn(-c3ccc([C@@H]4[C@@H](c5ccccc5)C(=O)N4c4cc(OC)c(OC)c(OC)c4)cc3)nn2)CC1` (relative stereo) [Compound 32, (1-(4-(trans-4-oxo-3-phenyl-1-(3,4,5-trimethoxyphenyl)azetidin-2-yl)phenyl)-1H-1,2,3-triazol-4-yl)methyl-4-ethylpiperazine-1-carbodithioate], the IC50 was more than 20 µM in assay [1] (Homo sapiens, A549); more than 20 µM in assay [2] (Homo sapiens, MGC-803); more than 20 µM in assay [3] (Homo sapiens, MCF7).
With `COc1ccc([C@H]2C(=O)N(c3cc(OC)c(OC)c(OC)c3)[C@@H]2c2ccc(N=[N+]=[N-])cc2)cc1` (relative stereo) [Compound 17, trans-4-(4-azidophenyl)-3-(4-methoxyphenyl)-1-(3,4,5-trimethoxyphenyl)azetidin-2-one], the IC50 in assay [1] (Homo sapiens, A549) is 3.22 ± 0.349 µM; in assay [2] (Homo sapiens, MGC-803), 0.59 ± 0.014 µM; in assay [3] (Homo sapiens, MCF7), 1.07 ± 0.024 µM.
For “trans-4-phenyl-3-(thiophen-2-yl)-1-(3,4,5-trimethoxyphenyl)azetidin-2-one [Compound 27]”, the IC50 in assay [1], in assay [2] and in assay [3] was more than 20 µM in each case.
In the case of `COc1ccc([C@H]2C(=O)N(c3ccc(OC)cc3OC)[C@@H]2c2cccc(N=[N+]=[N-])c2)cc1` (relative stereo) [Compound 21, trans-4-(3-azidophenyl)-1-(2,4-dimethoxyphenyl)-3-(4-methoxyphenyl)azetidin-2-one], the IC50 was more than 20 µM in assay [1] (Homo sapiens, A549); more than 20 µM in assay [2] (Homo sapiens, MGC-803); more than 20 µM in assay [3] (Homo sapiens, MCF7).
With `COc1ccc([C@H]2C(=O)N(c3cc(OC)c(OC)c(OC)c3)[C@@H]2c2ccc(-n3cc(CSC(=S)N4CCCC4)nn3)cc2)cc1` (relative stereo) [Compound 31, (1-(4-(trans-3-(4-methoxyphenyl)-4-oxo-1-(3,4,5-trimethoxyphenyl)azetidin-2-yl)phenyl)-1H-1,2,3-triazol-4-yl)methylpyrrolidine-1-carbodithioate], the IC50 in assay [1] (Homo sapiens, A549) is more than 20 µM; in assay [2] (Homo sapiens, MGC-803) it was more than 20 µM; in assay [3] (Homo sapiens, MCF7), more than 20 µM.
